Measured values reported in ChEMBL document CHEMBL3507680, “University of Dundee, Gates Library screen for HepG2 cell viability”.

experiment: Human HepG2 cell viability assay in 384 well format; format: toxicity, cell-based; set-up: dose 125 nL, time 70.5 hour; cytotoxicity at 70.5 h: concentration not given beside the values; settings: HepG2 cells, read-out: Inhibition

SMILES | cytotoxicity at 70.5 h [%]
O=C(NCc1ccco1)N1CCOC(c2ccccc2Cl)C1 (stereo unspecified) | -15.6
O=C(NCCc1ccccn1)N1CCOC(c2ccccc2Cl)C1 (stereo unspecified) | -5.38
CSc1ccc(C)c(C(=O)Nc2c(C(N)=O)n[nH]c2C)c1 | -5.86
COc1cc(F)cc2sc(NC(=O)COCC3CCCO3)nc12 (stereo unspecified) | 13.2
N#Cc1cccnc1NCCNC(=O)N1CCCSCC1 | -13
CCc1ccc(S(=O)(=O)Nc2cn(C)cc(Br)c2=O)cc1 | 7.59
CN(C)C(=O)N1CCN(Cc2nnc(C(C)(C)C)o2)CC1 | -4.6
CCc1nc(CN(C)CC2CCN(CC(C)O)CC2)no1 (stereo unspecified) | -4.55
Cc1nnc(C(C)NCC2(c3ccc(Cl)cc3)CCCC2)o1 (stereo unspecified) | -7.22
COc1ccc(C2(CNC(C)c3nnc(C)o3)CCCCC2)cc1 (stereo unspecified) | -8.26
Cc1ccc(CN(C)C(=O)CN2CCCC2Cn2cccn2)o1 (stereo unspecified) | -9.22
Cc1cnn(CC2CCCN2CC(=O)N(C)CCC#N)c1 (stereo unspecified) | -7.49
CN(CC1CCCCO1)C(=O)c1ccnc(OC2CCC2)c1 (stereo unspecified) | -5.26
CCc1nnc2n1CCN(Cc1csc(-c3cnn(C)c3)n1)C2 | 6.48
Cc1cc(NC(=O)CCc2ccsc2)n(C)n1 | -9.51
O=S1(=O)CCCN1Cc1coc(-c2cccs2)n1 | -10.6
CC(C)(C)NC(=O)CNC(=O)CCc1ccccc1Br | -8.13
CCCNC(=O)C(C)NC(=O)CCc1ccccc1Br (stereo unspecified) | -6.3
CC1CCN(CCNC(=O)C2CCN(S(N)(=O)=O)CC2)CC1 | -3.07
CN(C)CCN(Cc1ccc(Cl)cc1)C(=O)c1cc[nH]n1 | -3.35
NC(=O)CN1CCC(NC(=O)c2ccn(-c3cccc(F)c3)n2)CC1 | -3.27
Brc1cc2c(cc1CN1CCC(N3CCCCC3)CC1)OCCO2 | -2.82
CC(NC(=O)N(C)Cc1ccncc1)c1nncn1C (stereo unspecified) | -4.45

SMILES | cytotoxicity at 70.5 h [%]
COc1cc(C)nc(N2CCN(Cc3nccn3C)CC2)n1 | 0.0501
Cc1cc(NC(=O)CN2CCc3nn(C)c(=O)cc3C2)on1 | 1.43
CSCCCNC(=O)Nc1cccc(-c2nccn2C)c1 | 3.57
Cn1ccnc1-c1cccc(NC(=O)NCCCO)c1 | 1.83
N#Cc1cccc(SCCS(N)(=O)=O)c1 | -6.9
Cc1nc(C2CCCN(C(=O)c3scnc3C)C2)no1 (stereo unspecified) | -7.6
Cc1nc(C2CCCN(C(=O)c3sccc3C3CC3)C2)no1 (stereo unspecified) | -8.62
O=C(c1cc(Cl)c2c(c1)OCO2)N1CCN(c2ccccn2)CC1 | -2.19
CC(NC(=O)C1=NN(C)C(=O)CC1)c1ccc(F)cc1F (stereo unspecified) | 20
CC(OCC(F)(F)F)C(=O)N1CCN(S(C)(=O)=O)CC1 (stereo unspecified) | -1.69
O=C(NCCCn1cccn1)C1(c2ccc(F)cc2)CC1 | -2.75
Cc1cccc(C2(C(=O)NCCCn3cccn3)CC2)c1 | -5.49
Cc1ccc(C(=O)NC(CN2CCCC2=O)c2ccccc2)c(=O)[nH]1 (stereo unspecified) | 17.4
Cc1nc(C(C)(C)NC(=O)Nc2cccc(C#N)c2)no1 | -2.69
OCCOc1nc(-c2ccccc2Cl)no1 | -1.34
O=C1OCCN1CCOc1nc(-c2ccccc2Cl)no1 | -4.69
CN(CC(F)(F)F)C(=O)C1CSCN1C(=O)OC(C)(C)C (stereo unspecified) | 4.04
CCCc1cc(NC2CCc3ncnn3C2)n2ncnc2n1 (stereo unspecified) | 0.783
Cc1nc2n(n1)CC(Nc1cc(C(F)(F)F)nc3ncnn13)CC2 (stereo unspecified) | -0.866
CCc1ncc2c(n1)CN(Cc1nc(C)c(C)o1)CC2 | 1.3
Cc1c(Br)cccc1C(=O)NC(C)CN1CCCC1=O (stereo unspecified) | 1.84
CCn1nc2c(cc1=O)CN(Cc1nc3ccccc3c(=O)[nH]1)CC2 | 0.253
CCc1nc2n(n1)CC(Nc1cc(C)nc3ncnn13)CC2 (stereo unspecified) | -5.27

SMILES | cytotoxicity at 70.5 h [%]
O=C(NS(=O)(=O)c1ccccc1Cl)c1cccc2c1OCCO2 | -3.53
O=C(NS(=O)(=O)c1cc(Cl)sc1Cl)c1cccc2c1OCCO2 | 1.61
CC(C)NC(=O)N1CCC(n2ccc(C(F)(F)F)n2)CC1 | 1.15
CN(CCC(F)(F)F)C(=O)C1CCCN1C(=O)OC(C)(C)C (stereo unspecified) | 0.473
CCc1n[nH]c(C2CN(CC(=O)NCCc3ccsc3)CCO2)n1 (stereo unspecified) | -3.93
c1csc(-c2nc(CN3CCCC3Cn3cncn3)co2)c1 (stereo unspecified) | -10.5
Cc1nc(CN2CCc3cncnc3C2)oc1C | -5.69
Cc1ccn(-c2ccccc2NCc2ccccn2)n1 | -8
Cc1ccc(F)c(C(=O)N2CCN(S(C)(=O)=O)[C@@H](C)C2)c1 | -3.67
Cc1cc(F)cc(S(=O)(=O)NCCCN2CCC(O)CC2)c1 | 11.3
Cc1cc(F)c(S(=O)(=O)NCCCN2CCC(O)CC2)cc1F | 7.32
O=C(C(CNCc1ccncc1)c1ccccc1)N1CCOCC1 (stereo unspecified) | -5.58
NC(=O)C1CCN(Cn2nc(-c3ccc(F)cc3)oc2=O)CC1 | 5.9
Cc1cc(CN(C)C(=O)C2CCCN(C(=O)c3ccc(Cl)cc3)C2)no1 (stereo unspecified) | -10.8
Cc1ccc(-n2nnc(CC(=O)N3CCSCC3)c2C)cc1 | -12.8
CCOc1cc(CN(C)CCOC)ccc1OC(F)F | 12.4
Cc1oc(-c2ccsc2)nc1CC(=O)NCCS(C)(=O)=O | -12.9
C[C@@H]1C[C@@H]2CCN(Cc3ccccn3)C[C@H]2O1 | -5.42
Cc1cccc(CN2CC[C@H]3C[C@H](C)O[C@@H]3C2)n1 | -4.58
O=C(CO)N1C[C@H]2CN(Cc3cccc(F)c3)C(=O)[C@H]2C1 | -5.34
Cc1nccc([C@@H]2C[C@@H]3CCN(Cc4c(C)noc4C)C[C@H]3O2)n1 | -10.7
O=C(C1CCOC1)N1CCC2(CCN(Cc3nccs3)C2)CC1 (stereo unspecified) | -10.1
Cc1cnc(C(=O)N2C[C@H]3CN(Cc4cccc(F)c4)C(=O)[C@H]3C2)cn1 | 10.5

SMILES | cytotoxicity at 70.5 h [%]
CN1C(=O)CC(c2cnn(C)c2)C12CCN(C(=O)c1cscn1)CC2 (stereo unspecified) | -2.36
Cc1oncc1C(=O)N1CCC2(CC1)C(c1cnn(C)c1)CC(=O)N2C (stereo unspecified) | -9.68
Cc1cnc(C(=O)N2C[C@@H](NS(C)(=O)=O)[C@@H]3OCCC[C@@H]32)cn1 | -13.4
Fc1cnc(N2CCCC3(CCN(Cc4nccs4)C3)C2)nc1 (stereo unspecified) | 15
c1ccc(NCc2cnc3n2CCN(C2CCOC2)CC3)nc1 (stereo unspecified) | 15.7
CS(=O)(=O)N[C@@H]1CN(C(=O)c2ccccn2)C[C@@H]2CCCO[C@@H]21 | -9.33
c1nc2n(c1CN1CCCC1)CCN(C1CCOCC1)CC2 | -7.69
c1ccc(COCC2CN(Cc3ccsc3)Cc3nccn3C2)nc1 (stereo unspecified) | -7.86
CS(=O)(=O)NCc1ncn2c1CN(C(=O)C1CCCCC1)CCC2 | -4.09
CS(=O)(=O)NCc1ncn2c1CN(CCN1CCCC1)CCC2 | -6.23
Cc1ccc(NC(=O)N2CC(C(=O)NC(C)C)C3(CCOCC3)C2)cc1 (stereo unspecified) | -6.28
Cc1ccc(C(=O)N2C[C@@H]3OCCN(C(C)C)[C@@H]3C2)cn1 | -11.3
CC(C)NC(=O)C1CN(C(=O)COc2ccccc2)CC12CCOCC2 (stereo unspecified) | -9.68
CN(C)C(=O)n1c(C(=O)NC(C)(C)CO)cc2c1c1ccccc1n2C | -6.99
CC(C)NC(=O)C1CN(C(=O)Nc2ccc(F)cc2)CC12CCOCC2 (stereo unspecified) | -6.35
CC(C)NC(=O)C1CN(C(=O)Nc2cccc(F)c2)CC12CCOCC2 (stereo unspecified) | -6.98
O=C(c1ccnnc1)N1CCC2(CC1)CN(c1ccccn1)CCO2 | -10.9
CC(C)N1CCO[C@H]2CN(C(=O)c3ccncc3)C[C@H]21 | 11.9
CCn1ncc2c1CN(C(=O)c1cscn1)CC2COC (stereo unspecified) | -7.98
CN(C)C(=O)CN1C[C@H]2CN(Cc3cccc(F)c3)C(=O)[C@H]2C1 | -5.27
O=C(c1cccnc1)N1C[C@H]2CN(Cc3cccc(F)c3)C(=O)[C@H]2C1 | -3.89
Cc1ccc(CN2CCC3(CCN(c4cnn(C)c4)C3=O)C2)s1 (stereo unspecified) | 13.4
COc1ccc(CN2C[C@@H]3OCCN(C)[C@@H]3C2)cc1 | -4.77

SMILES | cytotoxicity at 70.5 h [%]
Cn1cc(N2CCC3(CCCN(Cc4ccc(F)cc4)C3)C2=O)cn1 (stereo unspecified) | -12.2
O=C(c1ccccn1)N1C[C@H]2CCC[C@@]2(COCC2CCOCC2)C1 | -10.8
COc1cc(N2CC[C@@H](O)[C@@H]2Cc2cccnc2)ncn1 | -8.63
O=C1[C@H]2CN(Cc3ccc(F)cc3)C[C@H]2CN1c1ccsc1 | -13.2
O=C(c1ccno1)N1CC[C@@H]2O[C@H](COCCN3CCCC3)CC[C@@H]21 | 9.33
COc1ccc(CN2CCC3(CCCN(c4ncc(F)cn4)C3)C2)cc1 (stereo unspecified) | 50.3
COc1cc(N2C[C@H]3CCC[C@@H](CN(C)C4CC4)[C@H]3C2)ncn1 | -1.7
COCCNC(=O)[C@@]12CCO[C@@H]1CCN(Cc1ccc(OC)cc1)C2 | -5.1
Cc1ccc(C(=O)N2CCC3(CC2)CN(c2ccccn2)CCO3)cc1 | -8.31
COCCN1CCOCC12CCN(C(=O)c1ccoc1)CC2 | -4.83
Cc1ccc(N2CCO[C@H]3CN(Cc4ccc(F)cc4)C[C@H]32)nn1 | -7.45
Fc1ccc(CN2C[C@@H]3OCCN(CC4CCCO4)[C@@H]3C2)cc1 (stereo partly specified) | 11
c1cc(COC[C@]23COC[C@H]2CN(Cc2ccsc2)C3)ccn1 | 7.32
COc1cccc(CN2C[C@@H]3COC[C@]3(COCc3ccccn3)C2)c1 | 2.25
Fc1cnc(N2CCCC3(CCN(Cc4ccco4)C3)C2)nc1 (stereo unspecified) | 10.4
Fc1ccc(CN2Cc3nccn3CC(CN3CCOCC3)C2)cc1 (stereo unspecified) | -8.01
Cc1ccc(CN2Cc3nccn3CC(CN(C)C)C2)s1 (stereo unspecified) | -7.65
Cc1ccc2c(n1)N(Cc1cccnc1)CCN(C(=O)C1CC1)C2 | 11.2
c1cc(CN2C[C@@H]3OCCN(CC4CCCO4)[C@@H]3C2)ccn1 (stereo partly specified) | 8.75
